In patent US9745266B2 (THE REGENTS OF THE UNIVERSITY OF COLORADO, A BODY CORPORATE, priority 2013, dated 2017):
In brackets after ≈: the same amount, converted by molar mass. Where two headings read alike, the source gives them in different places.

Assays:
MRSA ATCC 33592 = experiment: Minimum resensitizing concentration (MRC), modified broth microdilution; type: cell-based, S. aureus; conditions: ATCC 33592
Experimental: (§1) For these activity tests, AMOXICILLIN® was used in combination with clavulanic acid (a.k.a., AUGMENTIN®), CEFAZOLIN®, and MEROPENEM® (an ultra-broad-spectrum carbapenem). […] To assess activity of each analog as a resistance-modifying agent (RMA), a modified broth microdilution assay was used. Briefly, this involves incubating MRSA with 2-fold serial dilutions of a compound in the presence of each individual antibiotic at its Clinical Laboratory Standards Institutes (CLSI)-defined sensitive concentration. For AMOXICILLIN®/clavulanic acid, this concentration is 4/2 μg/ml (8-fold potentiation), for CEFAZOLIN®, 8 μg/ml (16-fold potentiation) and for MEROPENEM®, 4 μg/ml (4-fold potentiation). Following overnight incubation, plates were examined for bacterial growth, or lack thereof. Compounds were tested at concentrations ranging from 0.5-32 μg/ml. […] The half growth inhibitory concentration (GI50) of each analog was determined by fitting the data using KaleidaGraph (v4.1.1, Synergy Software).
(§2) A modified broth microdilution assay was employed by incubating MRSA (ATCC: BAA-44) with Of1 in 2-fold series dilution in the presence of individual antibiotics at the highest sensitive concentration at 37° C. overnight. […] The MRC values were also determined for another three MRSA strains. […] Furthermore, the mammalian toxicity of Of1 was evaluated using human liver hepatocellular carcinoma HepG2 cell line in CellTiter Glo™ mammalian viability assay (Promega).
(§3) MRC screens were performed as follows: antibiotic MIC values where S. aureus is considered susceptible were determined from the CLSI handbook supplement. Analogs of Of1 were diluted to 5 mg/ml in DMSO. Antibiotic was prepared at twice the intended final concentration in Mueller Hinton Broth (MHB). For amoxicillin/clavulanic acid, the initial concentration was 8/4 μg/ml, for meropenem 8 μg/ml and for cefazolin 16 μg/ml. 50 μl of the antibiotic containing media was added to each well of 96 well plates and 100 μl was added to the top row. 1.28 μl of 5 mg/ml alkaloid solution was added to the top row of each plate to afford a concentration of 64 μg/ml in the top row of each plate and two fold serial dilutions were performed down the columns. Once the plates were prepared, a day culture of MRSA was diluted to OD600 0.002 and 50 μl was added to each well. The final concentration of MRSA was OD600 0.001, the final concentration of amoxicillin/clavulanic acid was 4/2 μg/ml, the final concentration of meropenem was 4 μg/ml the final concentration of cefazolin was 8 μg/ml, and the highest concentration of Of1 analog tested was 32 μg/ml. Plates were incubated overnight at 37° C. with shaking. The MRC value was determined as the concentration of Of1 analog in the presence of antibiotic at which there was no observable overnight growth.

MRSA ATCC BAA-44 [1] = experiment: as above; type: cell-based, S. aureus; conditions: ATCC BAA-44; oxacillin at highest sensitive concentration
Experimental: as §1, §2, §3

[2] = system: ATCC 700789 (vancomycin intermediate resistant S. aureus, VISA); experiment: Minimum resensitizing concentration (MRC); type: cell-based
Experimental: (§4) A modified broth microdilution assay was employed by incubating MRSA (ATCC: BAA-44) with Of1 in 2-fold series dilution in the presence of individual antibiotics at the highest sensitive concentration at 37° C. overnight. […] This is probably due to both the different sensitive concentration defined for each antibiotic and the different level of resistance of MRSA to various antibiotics. The MRC values were also determined for another three MRSA strains. The strain 33592 (ATCC) behaves similarly to BAA-44, and their MRCs for the three antibiotics tested are all 4 μg/mL. […] ATCC 700789 is particularly interesting, because it is also known as a vancomycin intermediate resistant S. aureus (VISA). […] Furthermore, the mammalian toxicity of Of1 was evaluated using human liver hepatocellular carcinoma HepG2 cell line in CellTiter Glo™ mammalian viability assay (Promega).

MRSA ATCC BAA-1683 = experiment: Minimum resensitizing concentration (MRC); type: cell-based, S. aureus
Experimental: as §4

MRSA ATCC BAA-44 [3] = experiment: MIC in the presence of 20 μM Of1 / alkaloid; type: cell-based, S. aureus
Experimental: (§5) Indoline alkaloid compounds were then screened for the ability to potentiate the activity of methicillin against MRSA. A multi-drug resistant MRSA strain (ATCC: BAA-44) was selected for the initial screening. […] To each well, 20 μM of each individual indoline alkaloid was added and the plates were incubated at 37° C. for 16 hrs.
(§6) The MRSA strain ATCC BAA-44 and the methicillin-sensitive S. aureus (MSSA) strain ATCC 25923 were used to determine the MIC values of various antimicrobial compounds in the presence of 20 μM Of1. The experiment was conducted similarly to the CLSI MIC determination described previously; however, MHB was supplemented with 40 μM Of1 prior to set up and inoculation. The final concentration of Of1 after inoculation with BAA-44 was 20 μM.

[4] = system: methicillin-sensitive S. aureus (MSSA, ATCC: 25923); experiment: MIC, CLSI broth microdilution; type: cell-based; conditions: Staphylococcus aureus; MSSA ATCC 25923, compound alone
Experimental: as §5
All antimicrobial compounds were purchased from Sigma-Aldrich. The growth media used for all MIC experiments was Mueller Hinton Broth (MHB) purchased from HIMEDIA through VWR (cat: 95039-356). The inoculum was prepared by diluting a bacterial day culture (OD600 0.15-0.4) to OD600 0.002. This dilution was further diluted two fold when added to 96 well microplates (USA Scientific CytoOne 96-well TC plate, cat: CC7682-7596) for a final inoculum concentration of OD600 0.001. All plates were incubated at 37° C. with shaking for 18 hours (overnight) before results were interpreted.

HeLa cells = experiment: Mammalian cytotoxicity, CellTiter-Glo viability assay; type: cell-based, human; conditions: 24 hours
Experimental: To evaluate the cytotoxicity of Of1 in mammalian cells, a cell viability assay was carried out using CellTiter-Glo luminescent cell viability assay kit (Promega). Human cervixcal adenocarcinoma HeLa cells were seeded on white, cell-culture treated 96-well plates (Corning: 3917) with Dulbecco's modified Eagle's medium (DMEM) supplemented with 10% fetal calf serum (FCS), 1% penicillin/streptomycin, at the densities of 20,000 cells/well. The medium volume for each well was 100 μL. Cells were incubated at 37° C. in 5% CO2/95% air for 16 hours. The medium was removed from each well and replaced with 99 μL of warmed fresh medium. To each well, 1 μL of Of1 analog was added in DMSO to final concentrations of 0.5-32 μg/mL. Each series was performed in triplicate. After incubation at 37° C. for another 24 hours, the plates were equilibrated to room temperature for 30 minutes. 100 μL of CellTiter-Glo reagent (Promega) was added to each well and mixed for 2 minutes on an orbital shaker. The plate was incubated at room temperature for another 10 minutes to stabilize luminescent signal. The luminescence of each sample was recorded in an Envision Multilabel Plate Reader (Perkin Elmer).

[5] = Mammalian toxicity, CellTiter Glo viability assay; type: cell-based, human; conditions: human, HepG2 cells
Experimental: as §4

HepG2 cells = experiment: Mammalian toxicity, CellTiter Glo viability assay; type: cell-based, human; conditions: at 4 μg/mL
Experimental: as §4

[6] = system: MSSA strain (ATCC: 25923); experiment: Potentiation of β-lactam antibiotics by 20 μM Of1 in MSSA; type: cell-based, S. aureus; conditions: MSSA ATCC 25923
Experimental: Taken together, it appears that Of1 is a resistance-modifying agent specifically for β-lactam antibiotics.
as §6

MRSA ATCC BAA-44 [7] = experiment: MIC, CLSI broth microdilution; type: cell-based, S. aureus; conditions: MRSA ATCC BAA-44, compound alone

MIC of methicillin in media supplemented with 20 μM alkaloid (MRSA ATCC BAA-44 [3]; MRSA ATCC BAA-44, methicillin MIC alone 128): 8 µg/mL
MIC [4]: > 128 µg/mL
MIC (MRSA ATCC BAA-44 [7]): > 128 µg/mL
MIC (MRSA ATCC BAA-44 [7]; Staphylococcus aureus, read-out: MIC): > 128 µg/mL
SMILES: C=C1CCC[C@@H]2Nc3ccc(Br)cc3[C@]12CCNS(=O)(=O)c1ccc(Cl)cc1 (stereo in doubt) [Of1, N-(2-(6-Bromo-4-methylene-2,3,4,4a,9,9a-hexahydro-1H-carbazol-4a-yl)ethyl)-4-chlorobenzenesulfonamide]
MRC of Of1, amoxicillin/clavulanate (MRSA ATCC 33592): 4 µg/mL
MRC of Of1, cefazolin (MRSA ATCC 33592): 4 µg/mL
MRC of Of1, oxacillin (MRSA ATCC 33592; oxacillin at highest sensitive concentration): 4 µg/mL
MRC of Of1, oxacillin (MRSA ATCC BAA-44 [1]): 2 µg/mL
MRC of Of1, oxacillin ([2]; ATCC 700789): >64 µg/mL
MRC of Of1, amoxicillin/clavulanate ([2]; ATCC 700789 (VISA)): 4 µg/mL
MRC of Of1, amoxicillin/clavulanate (MRSA ATCC BAA-1683): 4 µg/mL
MRC of Of1, oxacillin (MRSA ATCC BAA-1683; 32 μg/mL highest concentration tested): >32 µg/mL
fold potentiation of methicillin (MRSA ATCC BAA-44 [3]; 20 μM (ca. 10 μg/mL) Of1, MRSA BAA-44): 16 fold
fold potentiation of all β-lactam antibiotics (MRSA ATCC BAA-44 [3]; 20 μM Of1, MRSA BAA-44): 8-128 fold
fold potentiation of meropenem (MRSA ATCC BAA-44 [3]; 20 μM Of1, MRSA BAA-44): 16 fold
GI50 (HeLa cells): 17.1 µg/mL (≈ 35.5 µM)
GI50 [5]: ~8.9 µg/mL (≈ 18.5 µM)
cytotoxic effect against HepG2 cells (HepG2 cells): no observable cytotoxic effect
potentiation of β-lactam antibiotics in MSSA [6]: does not show any significant potentiation effect
